According to US20230331690A1, “THC DERIVATIVES, ORAL DOSAGE FORMS COMPRISING SAME, USES THEREOF FOR TREATING DISEASES AND DISORDERS AND SYNTHESIS THEREOF” (BAR-ILAN UNIVERSITY, priority 2020, published 2023):
“And” between values parts separate entries of the source, which are not always exact repeats. Identical values can stand only once. Like-named read-outs stand apart in the source and are kept apart here.

What was measured:
[1] = Persistence over time, brain samples postmortem (Example 18); type: in vivo, mice
Method: (§1) Blood samples from each mouse were collected at each time point for the pharmacokinetics tests. For 6 h after administrating of all tested drugs, and after testing their WRL on the hot plate, half the mice (n=3) of each group were sacrificed, and the liver and brain of each animal were taken for pharmacokinetics tests. From the remaining mice, blood samples were acquired at 12 h after administration for pharmacokinetics tests. At 24 h after drug administration, and after checking the WRL again, second half of each group of mice were sacrificed, and the liver and brain of each animal were taken for pharmacokinetics tests.
(§2) All the results of the brain and liver samples, which were taken postmortem 6 h or 24 h after administration (n=3) are summarized in Tables 12-13.

[2] = Body temperature by rectal thermometer (hypothermia)
[3] = Persistence over time, liver samples postmortem (Example 18); type: in vivo, mice; conditions: mouse, liver, oral, read-out: Average results for 3 mice (Table 13, liver); for concentration at 6 h: died at 6 h; for concentration at 24 h: died at 24 h, number in brackets = mice with a value
Method: as §1, §2

[4] = Persistence over time, blood samples (Example 18); type: in vivo, mice
Method: as §1

[5] = Pharmacokinetics, liver samples (Example 17); type: in vivo, mice; conditions: for concentration at 24 h / concentration at 5 h: mouse, liver; for concentration at 24 h: ip; for concentration at 5 h: po
mice = assay: Hot plate assay, withdrawal reflex latency (WRL); type: in vivo; conditions: for Hot plate Time: per animal
[6] = Pharmacokinetics, blood samples (Example 17); conditions: for concentration at 0.5 h: mouse, blood, ip, Component in the blood, label = analyte
Method: The pharmacokinetics of 9-CD3-(8-D2)-THC compared to natural THC was evaluated using both intraperitoneal i.p. injection and an oral gavage administration for each material. The mice were divided into four groups containing 6 mice (24 mice total). For each group of mice, a blood sample was withdrawn at baseline (t=0), and half-hour intervals (t=0.5, 2 and 5 h) after administration of the drug. Three mice, half of each group, were euthanized with CO2 after 5 h and their organs (brain and liver) were collected. From the second half of each group, another blood sample was withdrawn 24 h after administration, and then these animals were euthanized and the brain and liver were collected for analysis.

[7] = 8 mg/Kg oral, t = 6 h, listed as THC-d5

## [2H]C([2H])([2H])C1=C[C@H]2c3c(O)cc(CCCCC)cc3OC(C)(C)[C@@H]2CC1([2H])[2H] [9-CD3-(8-D2)-THC]
[1]; 24 h after administration, highest concentration of 8 mg/kg
  presence in the brain: evidence for the synthetic material in the brain
[1]; mouse, brain, oral, 8 mg/kg administered, died at 6 h, number in brackets = mice with a value, read-out: Average results for 3 mice - brain samples
  concentration at 6 h: 48 ng/g
[2]; high concentration of 8 mg/kg oral
  time of strongest effect on body temperature after drug administration: 3 h
[2]; medium concentration of 4 mg/kg oral
  hypothermia effect (body temperature): very clear hypothermia effect
[2]; mice, avg. of 6 mice, 8 mg/kg (groups C+D), t = 3 h after administration
  Body temperature, Avg. change compared to t = 0, at t = 3 h: −2.6 °C
[2]; mice, group D, 8 mg/kg, single animal, t = 24 h
  Animal status in the Temp. column at t = 24 h: Died
[3]; 2 mg/kg administered
  concentration at 6 h: 3.31 ng/g
  concentration at 24 h: 0.75 ng/g
[3]; 4 mg/kg administered
  concentration at 6 h: 16.1 ng/g
[3]; 8 mg/kg administered
  concentration at 6 h: 57.8 ng/g
  concentration at 24 h: 1.64 ng/g
[4]; 4 mg/kg administration, Time 3 h, label = analyte
  Average results, blood samples: 1.44 (4/4) ng/mL
[4]; 8 mg/kg administration, Time 12 h (3 mice), label = analyte
  Average results, blood samples: 0.15 (1/1) ng/mL
[4]; conclusion from mouse blood, brain and liver samples
  metabolic stability compared to THC: better metabolic stability than THC
[4]; mouse, blood, oral, 4 mg/kg administration of THC or THC-d5, Time 0.5 h, label = analyte
  concentration at 0.5 h: 10.4 ng/mL
[4]; mouse, blood, oral, 8 mg/kg administration of THC or THC-d5, Time 0.5 h, label = analyte
  concentration at 0.5 h: 22.5 ng/mL
[4]; mouse, blood, oral, 8 mg/kg administration, Time 3 h, label = analyte
  concentration at 3 h: 7.27 ng/mL
[4]; mouse, blood, oral, 8 mg/kg administration, Time 6 h, label = analyte
  concentration at 6 h: 1.81 ng/mL
[5]; 5 h after oral gavage administration
  average liver concentration, times more than THC: 1.59 times
[5]; 24 h after i.p. administration
  average liver concentration, times more than THC: 1.40 times
[5]; 24 h after i.p. administration, n=3, read-out: average liver concentration
  concentration at 24 h: 10.7 ng/g
[5]; 24 h after i.p. injection of THC or THC-d5, label = analyte, n=3, read-out: Component in the liver, Average
  concentration at 24 h: 10.7 ng/mL
[5]; 24 h after i.p. injection of THC or THC-d5, label = analyte, read-out: Component in the liver, mouse 1
  concentration at 24 h: 12.4 ng/mL
[5]; 24 h after i.p. injection of THC or THC-d5, label = analyte, read-out: Component in the liver, mouse 2
  concentration at 24 h: 15 ng/mL
[5]; 24 h after i.p. injection of THC or THC-d5, label = analyte, read-out: Component in the liver, mouse 3
  concentration at 24 h: 4.64 ng/mL
[5]; 5 h after oral gavage administration of THC or THC-d5, label = analyte, n=3, read-out: Component in the liver, Average
  concentration at 5 h: 5.99 ng/mL
[5]; 5 h after oral gavage administration of THC or THC-d5, label = analyte, read-out: Component in the liver, mouse 1
  concentration at 5 h: 5.57 ng/mL
[5]; 5 h after oral gavage administration of THC or THC-d5, label = analyte, read-out: Component in the liver, mouse 2
  concentration at 5 h: 6.28 ng/mL
[5]; 5 h after oral gavage administration of THC or THC-d5, label = analyte, read-out: Component in the liver, mouse 3
  concentration at 5 h: 6.13 ng/mL
[5]; 5 h after oral gavage administration, n=3, read-out: average liver concentration
  concentration at 5 h: 5.99 ng/g
mice; 2 mg/Kg oral, t = 0.5 h
  Hot plate Avg. 6 mice: 9.52 s
mice; 2 mg/Kg oral, t = 0.5 h, listed as THC-d5
  Hot plate Time: 9.4 s and 9.3 s and 8.9 s and 10.9 s and 12.0 s and 6.6 s
mice; 2 mg/Kg oral, t = 3 h
  Hot plate Avg. 6 mice: 10.97 s
mice; 2 mg/Kg oral, t = 3 h, listed as THC-d5
  Hot plate Time: 7.2 s and 12.1 s and 8.5 s and 19.3 s and 13.1 s and 5.6 s
mice; 2 mg/Kg oral, t = 6 h
  Hot plate Avg. 6 mice: 10.07 s
mice; 2 mg/Kg oral, t = 6 h, listed as THC-d5
  Hot plate Time: 9.3 s and 14.5 s and 4.5 s and 15.8 s and 8.9 s and 7.4 s
mice; 2 mg/Kg oral, t = 24 h
  Hot plate Avg. 3 mice: 8.3 s
mice; 2 mg/Kg oral, t = 24 h, listed as THC-d5
  Hot plate Time: 7.9 s and 9.5 s and 7.5 s
mice; 2 mg/kg, 0.5 h
  increase in the WRL compared to baseline: 3%
mice; 2 mg/kg, 3 h
  change in average WRL compared to baseline: +19%
mice; 2 mg/kg, 6 h
  change in average WRL compared to baseline: +9%
mice; 4 mg/Kg oral, t = 0.5 h
  Hot plate Avg. 6 mice: 14.03 s
mice; 4 mg/Kg oral, t = 0.5 h, listed as THC-d5
  Hot plate Time: 19.2 s and 10.3 s and 13.0 s and 9.5 s and 15.8 s and 16.4 s
mice; 4 mg/Kg oral, t = 3 h
  Hot plate Avg. 6 mice: 13.77 s
mice; 4 mg/Kg oral, t = 3 h, listed as THC-d5
  Hot plate Time: 17.5 s and 11.8 s and 12.1 s and 9.2 s and 12.5 s and 19.5 s
mice; 4 mg/Kg oral, t = 6 h
  Hot plate Avg. 6 mice: 15.38 s
mice; 4 mg/Kg oral, t = 6 h, listed as THC-d5
  Hot plate Time: 8.7 s and 19.9 s and 12.1 s and 8.3 s and 22.5 s and 20.8 s
mice; 4 mg/Kg oral, t = 24 h
  Hot plate Avg. 3 mice: 14.27 s
mice; 4 mg/Kg oral, t = 24 h, listed as THC-d5
  Hot plate Time: 5.2 s and 21.5 s and 16.1 s
mice; 4 mg/kg, 0.5 h
  increase in the WRL compared to baseline: 68%
mice; 4 mg/kg, 3 h
  change in average WRL compared to baseline: +65%
mice; 4 mg/kg, 6 h
  change in average WRL compared to baseline: +85%
mice; 8 mg/Kg oral, t = 0.5 h
  Hot plate Avg. 6 mice: 15.42 s
mice; 8 mg/Kg oral, t = 0.5 h, cut-off 30 s, listed as THC-d5
  Hot plate Time: 19.9 s and 24.5 s and 11.1 s and 17.5 s and 10.1 s and 9.4 s
mice; 8 mg/Kg oral, t = 3 h
  Hot plate Avg. 6 mice: 22.1 s
mice; 8 mg/Kg oral, t = 3 h, cut-off 30 s, listed as THC-d5
  Hot plate Time: 30.0 sec. (3×) and 6.0 sec. and 26.2 sec. and 10.4 sec.
mice; 8 mg/Kg oral, t = 3 h, listed as THC-d5
  Hot plate Avg. 6 mice: 22.10 s
mice; 8 mg/Kg oral, t = 6 h
  Hot plate Avg. 6 mice: 8.4 s
mice; [7]
  Hot plate Time: 6.4 s and 9.8 s and 11.5 s and 7.1 s and 13.4 s and 2.3 s
  Hot plate Avg. 6 mice: 8.42 s
mice; 8 mg/Kg oral, t = 24 h
  Hot plate Avg. 3 mice: 20.8 s
mice; 8 mg/Kg oral, t = 24 h, animal 20
  animal outcome printed in the hot plate Time column: Died
mice; 8 mg/Kg oral, t = 24 h, cut-off 30 s, listed as THC-d5
  Hot plate Time: 30.0 s and 11.2 s
mice; 8 mg/Kg oral, t = 24 h, listed as THC-d5
  Hot plate Avg. 3 mice: 20.6 s
mice; 8 mg/kg oral, up to 24 h after administration
  analgesic effect compared to natural THC and morphine: stronger and longer lasting analgesic effect
mice; 8 mg/kg, 0.5 h
  average increase in WRL compared to baseline (t=0): 67.6%
mice; 8 mg/kg, 3 h
  change in average WRL compared to t=0 at baseline: 140%
[6]; 0.5 h after i.p. administration
  average blood concentration, times higher than THC: 1.87 times
[6]; Average, 0.5 h after i.p. injection of THC or THC-d5, n=6 (THC-d5 n=5)
  concentration at 0.5 h: 110 ng/mL
[6]; mouse 1, 0.5 h after i.p. injection of THC or THC-d5
  concentration at 0.5 h: 183 ng/mL
[6]; mouse 2, 0.5 h after i.p. injection of THC or THC-d5
  concentration at 0.5 h: 93.8 ng/mL
[6]; mouse 4, 0.5 h after i.p. injection of THC or THC-d5
  concentration at 0.5 h: 141 ng/mL
[6]; mouse 5, 0.5 h after i.p. injection of THC or THC-d5
  concentration at 0.5 h: 74.1 ng/mL
[6]; mouse 6, 0.5 h after i.p. injection of THC or THC-d5
  concentration at 0.5 h: 58.9 ng/mL
